Measurements taken from patent US8828971B2, “Galactose-pronged carbohydrate compounds for the treatment of diabetic nephropathy and associated disorders” (Galectin Therapeutics, Inc., priority 2012, dated 2014).

Tests used:
[1] = tested on: mouse model of diabetic nephropathy; assay: Sirius red stained kidney sections with digital morphometry, mouse model of diabetic nephropathy; format: in vivo; conditions: diabetic mice, IV 40 mg/kg three times weekly for four weeks; for Sirius red staining (interstitial collagen between renal tubules), histological appearance: FIG. 2, 40 mg/kg
Description: Shown are low (×50) and high magnification (×200) pictures of the three experimental groups: 1) Normal mouse; 2) Diabetic mice treated with vehicle (phosphate buffered saline, treatment control); and 3) Diabetic mice treated with GR-MD-02/001 B (IV 40 mg/kg). The arrows point to a stained strand that indicates the presence of collagen type.
Statistical comparisons of the percent Sirius red staining shown for the three experimental groups: 1) Normal mouse; 2) Diabetic mice treated with vehicle (phosphate buffered saline, treatment control); and 3) Diabetic mice treated with GR-MD-02/001 B (IV 40 mg/kg).
(§1) The experimental model used in this example is the mouse in which diabetes was induced and a high fat diet was administered. Diabetes was induced immediately following birth with a single injection of streptozotocin. Four weeks later the mice were started on a high fat diet.
(§2) Diabetic mice were treated either with vehicle (phosphate buffered saline) or GR-MD-02/001B given intravenously in a dose of 40 mg/kg three times weekly for four weeks total. There were eight (8) mice in each group. Two normal mice were also utilized as a comparison group.
Sirius red reagent is used as a stain to evaluate the increase in extracellular matrix material in the interstitium between tubular cells. Minimal red staining is seen in the normal animals. However, there is an increase in staining seen in the vehicle treated control animals.
Thirty two (32) separate slides from each group were blindly evaluated by quantitative digital morphometry for the percent staining with Sirius red.

[2] = tested on: mouse model of diabetic nephropathy; assay: PAS stained kidney sections, mouse model of diabetic nephropathy; format: in vivo; conditions: diabetic mice, IV 40 mg/kg three times weekly for four weeks
Description: Shown are low (×200) and high magnification (×400) pictures of the three experimental groups: 1) Normal mouse; 2) Diabetic mice treated with vehicle (phosphate buffered saline, treatment control); and 3) Diabetic mice treated with GR-MD-02/001 B (IV 40 mg/kg). The arrows point to a glomerulus.
as §1, §2
The diabetic mice had clear histological evidence of diabetic nephropathy as shown in pictures of PAS stained kidney sections in FIG. 1. […] In the vehicle treated control animals there is a clear increase in mesangial basement membrane material (the pink extracellular matrix) over the normal animals.

galactoarabino-rhamnogalacturonate [GR-MD-02/001B]
Percent Sirius red staining by quantitative digital morphometry compared to vehicle treated controls ([1]; 32 slides per group, levels nearly the same as normal mice, FIG. 3): statistically significant decrease
Sirius red staining (interstitial collagen between renal tubules), histological appearance [1]: marked reduction
Sirius red staining (interstitial collagen between renal tubules), histological appearance ([1]; listed as GR-MD02/001B): reduced the deposition of matrix
Mesangial extracellular matrix material (PAS stain, glomerulus) compared to vehicle treated control animals ([2]; FIG. 1): marked decrease
Mesangial extracellular matrix material (PAS stain, glomerulus) compared to vehicle treated control animals ([2]; FIG. 1, listed as GR-MD02/001B): reduced the mesangial expansion of extracellular matrix
